Entries after “also recorded” stand apart in the source; their conditions may differ.
What was measured:
Format in all cases: cell-based
[1] = test system: Hedgehog (Hh) signaling pathway; test: Dual-luciferase reporter assay of Hedgehog activity in Light II cells; details: SAG stimulation, 36 h, dual-luciferase assay reporter kit, read-out: IC50 (nM) in Light II cells (inhibiting Hedgehog activity)
Protocol: Determination of the IC50 Values of Compounds Inhibiting Hedgehog Activity—Dual-Luciferase Reporter Assay:
Light II cells were NIH3T3 cell lines that stably express the Gli-luciferase and TK-renilla reporters. They were cultured with DMEM medium containing 10% (v/v) fetal bovine serum (FBS), 0.4 mg/ml G418, 0.15 mg/ml bleomycin (Zeocin), and penicillin/streptomycin at 37° C. in an incubator with 5% CO2. Light II cells in the logarithmic growth phase were seeded at a density of 2.5×10^4 cells/well in a 96-well plate. After 24h incubation, the cells were subjected to treatment with SAG with or without different concentrations of the compounds of the present disclosure for 36 h. After that, the Hedgehog activity was measured using the dual fluorescence reporter kit according to its instructions. The experiment had 3 replicates per group and was repeated at least three times.

RS4;11 cells = test: Thiazolyl blue cell proliferation assay in RS4;11 cells; details: Homo sapiens, RS4;11 acute lymphoblastic leukemia cells, 48 hours, read-out: IC50 (nM) for inhibiting the proliferation of RS4;11 cells
Summary of the method: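 RS4;11 cells, 3×10^4 cells/well in serum-containing RPMI-1640, treated 48 h with 7 concentrations (top 1000 nM or 100 nM, 10-fold serial dilutions). MTT added for 3 h at 37 °C, solubilised 4-6 h with SDS/isopropanol/HCl, absorbance read at 490 nm. IC50 from growth-inhibition curves; triplicates, at least three repeats.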

Molt-4 cells = test: Thiazolyl blue cell proliferation assay in Molt-4 cells; details: Homo sapiens, Molt-4 acute lymphocytic leukemia cells, 72 hours, read-out: IC50 (nM) for inhibiting the proliferation of Molt-4 cells
Summary of the method: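 BCL-XL-dependent Molt-4 cells at 2×10^4/well in serum-containing RPMI 1640 were exposed to compound concentration gradients for 72 h. Thiazolyl blue (MTT) was added for 3 h at 37° C, solubilised in SDS/isopropanol/HCl, and read at 490 nm. IC50 comes from growth-inhibition curves, triplicate, repeated ≥3 times.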

BCL-XL protein = molecular target: T1, BCL-XL protein (Homo sapiens, UniProt Q07817); test: Western blot of BCL-XL protein in Molt-4 cells; details: 100 nM, 8 h
T1 construct: endogenous in cells; host or cells: Molt-4 (human acute lymphocytic leukemia cells)
T1 sequence (Q07817 whole entry): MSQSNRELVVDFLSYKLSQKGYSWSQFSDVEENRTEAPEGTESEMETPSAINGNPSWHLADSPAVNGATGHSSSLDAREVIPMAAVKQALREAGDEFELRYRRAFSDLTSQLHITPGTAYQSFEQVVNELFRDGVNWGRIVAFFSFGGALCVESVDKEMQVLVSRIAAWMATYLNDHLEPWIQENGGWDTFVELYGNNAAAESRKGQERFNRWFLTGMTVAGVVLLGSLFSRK
Protocol: The BCL-XL antibody used in the experiment was purchased from Abcam Company, and the Tubulin antibody was purchased from Proteintech Company.
Molt-4 cells in logarithmic growth phase seeded at a density of 3×10^6 cells/well in a 6-well plate were subjected to treatment with the compounds of the present disclosure, and DMSO was used as the vehicle control group. After […] of treatment, the cells were harvested and washed once in PBS. Cells were placed on ice and treated with IP protein lysis buffer containing PMSF protease inhibitors. After centrifugation at 4° C. (10 k rpm, 5 min), the supernatant was collected and mixed with 4×LDS protein loading buffer at a volume ratio of 3:1. The mixture of protein supernatant with loading buffer were further added with 5% β-mercaptoethanol. After incubation in a metal bath at 95° C. for 10 minutes, the protein samples was stored at −80° C. or cooled directly on ice for protein electrophoresis using 10% homemade polyacrylamide gel as separation gel. Electrophoresis tank and other related components were purchased from Bio-rad company. The electrophoresis conditions were voltage 80 V for 45 minutes, then switch to voltage 120V for further electrophoresis for 1 hour. Then protein in gel was transferred onto PVDF membrane at an isocurrent of 300 mA in an icy water bath for one hour. Afterwards, the membrane was blocked with 5% skim milk for 1 hour at room temperature. Subsequently the membrane was incubated with primary antibody at 4° C. overnight or at room temperature for 2 h, then washed with 1×TBST buffer (sodium chloride, 150 mM, Tris, 10 mM, Tween 20, 0.1%; PH 7.4) for three times, and then added with secondary antibody and incubated at room temperature for 45 min, washed with 1×TBST buffer (sodium chloride, 150 mM, Tris, 10 mM, Tween 20, 0.1%; PH 7.4) three times, and subjected to color development. The antibody dilution ratio was determined according to the antibody instructions.
Molt-4 cells were seeded into a 6-well plate at a density of 3×10^6 cells per well. The next day, the cells were treated with the compounds of the present disclosure at a concentration of 100 nM, and the control groups were treated with DMSO and DT2216, respectively. Protein were extracted after 8 hours treatment, and BCL-XL protein expression was assessed by the western blot.

MV4;11 cells = test: Thiazolyl blue cell proliferation assay in MV4;11 cells; details: Homo sapiens, MV4;11 myeloid monocytic leukemia cells, 48 hours, read-out: IC50 (nM) for inhibiting the proliferation of MV4;11 cells
Summary of the method: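 MV4;11 cells were seeded at 2×10^4 cells/well in serum-containing IMDM and treated with compound dilution series for 48 h. Viability was read by MTT at 490 nm after SDS/isopropanol/HCl solubilisation. IC50 values came from growth-inhibition curves, with 3 replicates and at least three repeats.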

Compound | IC50 [1] [nM] | IC50 (RS4;11 cells) [nM] | IC50 (Molt-4 cells) [nM] | BCL-XL protein expression / degradation (western blot) (BCL-XL protein) | IC50 (MV4;11 cells) [nM]
CC1(C)CCC(CN2CCN(c3ccc(C(=O)NS(=O)(=O)c4ccc(NC[C@H]5CC[C@H](N6CCN(Cc7ccc8c(c7)CN(C7CCC(=O)NC7=O)C8=O)CC6)CC5)c([N+](=O)[O-])c4)c(Oc4cnc5[nH]ccc5c4)c3)CC2)=C(c2ccc(Cl)cc2)C1 (relative stereo) [BCL-03147, 2-((1H-pyrrolo[2,3-b]pyridin-5-yl)oxy)-4-(4-((4′-chloro-5,5-dimethyl-3,4,5,6-tetrahydro-[1,1′-biphenyl]-2-yl)methyl)piperazin-1-yl)-N-((4-((((trans)-4-(4-((2-(2,6-dioxopiperidin-3-yl)-1-oxoisoindolin-5-yl)methyl)piperazin-1-yl)cyclohexyl)methyl)amino)-3-nitrophenyl)sulfonyl)benzamide] | < 10 | < 20 | < 10 | significantly reduce the expression of BCL-XL protein; also recorded: significantly degraded BCL-XL protein | < 20
CC1(C)CCC(CN2CCN(c3ccc(C(=O)NS(=O)(=O)c4ccc(NC[C@H]5CC[C@@H](N6CCN(Cc7ccc8c(c7)CN(C7CCC(=O)NC7=O)C8=O)CC6)CC5)c([N+](=O)[O-])c4)c(Oc4cnc5[nH]ccc5c4)c3)CC2)=C(c2ccc(Cl)cc2)C1 (relative stereo) [BCL-03148, 2-((1H-pyrrolo[2,3-b]pyridin-5-yl)oxy)-4-(4-((4′-chloro-5,5-dimethyl-3,4,5,6-tetrahydro-[1,1′-biphenyl]-2-yl)methyl)piperazin-1-yl)-N-((4-((((cis)-4-(4-((2-(2,6-dioxopiperidin-3-yl)-1-oxoisoindolin-5-yl)methyl)piperazin-1-yl)cyclohexyl)methyl)amino)-3-nitrophenyl)sulfonyl)benzamide] | < 10 | < 20 | < 10 | significantly reduce the expression of BCL-XL protein; also recorded: significantly degraded BCL-XL protein | < 20
CC1(C)CCC(CN2CCN(c3ccc(C(=O)NS(=O)(=O)c4ccc(NC[C@H]5CC[C@@H](N6CCN(Cc7cc(Br)c8c(c7)C(=O)N(C7CCC(=O)NC7=O)C8)CC6)CC5)c([N+](=O)[O-])c4)c(Oc4cnc5[nH]ccc5c4)c3)CC2)=C(c2ccc(Cl)cc2)C1 (relative stereo) [BCL-03149, 2-((1H-pyrrolo[2,3-b]pyridin-5-yl)oxy)-N-((4-((((cis)-4-(4-((7-bromo-2-(2,6-dioxopiperidin-3-yl)-3-oxoisoindolin-5-yl)methyl)piperazin-1-yl)cyclohexyl)methyl)amino)-3-nitrophenyl)sulfonyl)-4-(4-((4′-chloro-5,5-dimethyl-3,4,5,6-tetrahydro-[1,1′-biphenyl]-2-yl)methyl)piperazin-1-yl)benzamide] | < 10 | < 20 | < 10 | significantly reduce the expression of BCL-XL protein; also recorded: significantly degraded BCL-XL protein | < 20
